Laboratory results as given in patent publication US4196217A, “Hydroxylated amines with bacteriostatic activity” (priority 1978, dated 1980).
Several values for one entry are separate records, joined by “and”; a condition that tells them apart may be missing. Identical values can stand only once. Like-named read-outs stand apart in the source and are kept apart here.

Assays:
Bacillus subtilis = experiment: bacteriostatic activity (MIC), Bacillus subtilis; assay type: cell-based; settings: for MIC: Bacillus subtilis, 48 h
Description: (§1) The medium containing the solution to be tested is inoculated in the form of three single striae with a 10^-5 times dilution of a bacterial culture aged 16 to 18 hours grown in salted peptone broth at a temperature of 37° C.
(§2) After inoculation, the media are stored at 37° C. for 48 hours, after which the bacterial growth is inspected. The MIC (minimum inhibiting concentrations) are expressed in micrograms of pure product per cubic centimeter of gelose medium required for inhibiting the culture (μg/cc). The control substance used is benzalconium chloride.
(§3) Tests were also carried out to determine the bacteriostatic activity of other compounds according to the invention by the method described above and in comparison with known substances, in particular with benzalconium chloride (compound T in the Tables).

Escherichia coli = experiment: bacteriostatic activity (MIC), Escherichia coli; assay type: cell-based; settings: for MIC: Escherichia coli, 48 h; for M.I.C.: hydrochloride
Description: as §1, §2, §3

Proteus vulgaris = experiment: bacteriostatic activity (MIC), Proteus vulgaris; assay type: cell-based; settings: Proteus vulgaris, 48 h, Table I, 37° C., read-out: MIC
Description: (§4) The medium containing the solution to be tested is inoculated in the form of three single striae with a 10^-5 times dilution of a bacterial culture aged 16 to 18 hours grown in salted peptone broth at a temperature of 37° C. After inoculation, the media are stored at 37° C. for 48 hours, after which the bacterial growth is inspected. The MIC (minimum inhibiting concentrations) are expressed in micrograms of pure product per cubic centimeter of gelose medium required for inhibiting the culture (μg/cc). The control substance used is benzalconium chloride.

Enterbacter cloacae = experiment: bacteriostatic activity (MIC), Enterbacter cloacae; assay type: cell-based; settings: 48 h, Table I, 37° C., read-out: MIC
Description: as §4

[1] = test system: spores of B.subtilis var. Niger; experiment: sporostatic activity (a), Petri dish dilution; assay type: cell-based; settings: for number of colonies (average of 2 tests): approximately 200 spores
Description: (a) 1 cc of a suspension of spores of B.subtilis var. Niger containing approximately 200 spores is placed in one Petri dish, whilst 1 cc of a solution containing 3 g/100 cc of the product (mother solution) or of the same mother solution diluted to 1/10th, 1/100th, etc. up to 1/100,000th, are placed in other Petri dishes. Following the addition of a culture medium, the dishes are agitated, cooled and then placed in an oven. The number of colonies obtained are then determined.

spores = experiment: sporocidal activity; assay type: cell-based; settings: especially above 35° C. and at a pH around 7
[2] = acute toxicity, intragastric, rats; settings: rat, in vivo, po, both after 48 hours and after 14 days
Description: The LD50 was calculated by the graphic method of J. T. Lichtfield and F. Wilcoxon (J. Pharm. Exp. Ther. 1949, 96: 99-[…]).

in vivo = settings: mouse, mice, intravenous, both after 3 minutes and after 14 days
Source text: Acute toxicity was again determined in male mice by intravenous administration.

[3] = Table I, with 20% of serum, 37° C., 48 hours, read-out: MIC
[4] = Table I, without serum, 37° C., 48 hours, read-out: MIC
[5] = Table VI, bacteriostase containing 20% of serum, read-out: M.I.C.
[6] = Table VI, bacteriostase without serum, read-out: M.I.C.

With `CCCCCCCCCCOCC(O)CN.Cl` (stereo not shown) [Compound 1, 3-decyloxy-2-hydroxy-1-aminopropane hydrochloride] the MIC (Bacillus subtilis; [3]) was 50 µg/mL, the MIC (Bacillus subtilis; [4]) was 30 µg/mL and the MIC (Bacillus subtilis; [5]) was 60 µg/mL. For the same compound, the MIC (Bacillus subtilis; [6]) was 15 µg/mL, the M.I.C. (Bacillus subtilis; Table VI, bacteriostase containing 20% of serum, hydrochloride) was 50 μg/cc and 40 μg/cc and the MIC (Escherichia coli; [3]) was 75 µg/mL. It also gave an MIC (Escherichia coli; [4]) of 20 µg/mL, an MIC (Escherichia coli; [5]) of 60 µg/mL and an MIC (Escherichia coli; [6]) of 20 µg/mL. The M.I.C. (Escherichia coli; Table VI, bacteriostase containing 20% of serum) was 80 μg/cc and 75 μg/cc and 100 μg/cc, the M.I.C. (Escherichia coli; Table VI, bacteriostase without serum) was 25 μg/cc and 40 μg/cc and the MIC (Proteus vulgaris; with 20% of serum) was 150 µg/mL. The MIC (Proteus vulgaris; without serum) was 40 µg/mL, the MIC (Enterbacter cloacae; with 20% of serum) was 80 µg/mL and the MIC (Enterbacter cloacae; without serum) was 30 µg/mL. For the same compound, the “number of colonies (average of 2 tests)” value ([1]; 0 dilutions to 1/10 (mother solution 3 g/100 cc)) was 0, the “number of colonies (average of 2 tests)” value ([1]; 1 dilution to 1/10 of mother solution 3 g/100 cc) was 0 and the “number of colonies (average of 2 tests)” value ([1]; 2 dilutions to 1/10 of mother solution 3 g/100 cc) was 18. For the same compound, the “number of colonies (average of 2 tests)” value ([1]; 3 dilutions to 1/10 of mother solution 3 g/100 cc) was > 200, the “number of colonies (average of 2 tests)” value ([1]; 4 dilutions to 1/10 of mother solution 3 g/100 cc) was > 200 and the “number of colonies (average of 2 tests)” value ([1]; 5 dilutions to 1/10 of mother solution 3 g/100 cc) was > 200. The MIC ([1]; Bacillus subtilis, taking into account the dilution by the gelose culture medium, from Table III, read-out: concentration still showing sporostatic activity) was 20 µg/mL, the sporocidal activity (spores) was “positive” and the LD50 [2] was 1300 mg/kg. It also gave an LD50 (in vivo) of 54.5 mg/kg.
